Data from US20110308790A1, “IN SITU METHANOGENESIS MODELING AND RISK ANALYSIS” (CONOCOPHILLIPS COMPANY, priority 2010, published 2011).

Test system: microbes in production water
Assay: biomass control with NaOCl solution (viable count CFU/mL)
Format: cell-based
Conditions: 0.03-0.6% NaOCl, 23 hours, presence or absence of oxygen
Method: The procedures to test the effectiveness, and the minimum dose, of NaOCl that is required to eliminate biomass in the injection line and injection well-bore during the field biogasification process are the following. The initial population of microbes in production water, placed in tubes that were to be incubated under defined oxygen saturation conditions was determined either by direct counting of cells using a Petroff Hausser bacterial counting chamber, or by counting the colony forming units (CFU/mL) of microorganisms that developed on specialized media after incubation for specific period. The population of microbes that were present in the incubated tubes (also with added carbon source-coal and nutrient additions) was determined over time after methane was detected in the headspace of the tubes. Thereafter, the same tubes were amended with different concentrations (0.6%, 0.3%, 0.15%, 0.1%, 0.075%, 0.06%, 0.03% and 0%) of NaOCl solution followed by incubation of the tubes for 23 hours to allow the biomolecule-oxidizing action of the solution to come to appreciable completion. Immediately after this, the population of viable microbes (i.e. CFU/mL) in the NaOCl-amended tubes was determined by plating a specific volume of the culture on defined solid medium.

OCl [NaOCl, sodium hypochlorite]
inactivation of microorganisms (viable CFU/mL): effective in inactiving microorganisms
